According to article PMC7947296, “p-Terphenyls From Aspergillus sp. GZWMJZ-055: Identification, Derivation, Antioxidant and α-Glycosidase Inhibitory Activities” (Frontiers in Microbiology, 2021):
“And” between values parts separate entries of the source, which are not always exact repeats. Equal entries are not always repeated.

Assays:
[1] = biological target: α-glucosidase from Saccharomyces cerevisiae (Saccharomyces cerevisiae, UniProt P53341); test: biochemical;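 also: 15 min preincubation at 37 °C, then 30 min with PNPG substrate at 37 °C, inhibition computed from absorbance versus drug-free blank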
α-glucosidase from Saccharomyces cerevisiae, sequence (P53341 whole entry): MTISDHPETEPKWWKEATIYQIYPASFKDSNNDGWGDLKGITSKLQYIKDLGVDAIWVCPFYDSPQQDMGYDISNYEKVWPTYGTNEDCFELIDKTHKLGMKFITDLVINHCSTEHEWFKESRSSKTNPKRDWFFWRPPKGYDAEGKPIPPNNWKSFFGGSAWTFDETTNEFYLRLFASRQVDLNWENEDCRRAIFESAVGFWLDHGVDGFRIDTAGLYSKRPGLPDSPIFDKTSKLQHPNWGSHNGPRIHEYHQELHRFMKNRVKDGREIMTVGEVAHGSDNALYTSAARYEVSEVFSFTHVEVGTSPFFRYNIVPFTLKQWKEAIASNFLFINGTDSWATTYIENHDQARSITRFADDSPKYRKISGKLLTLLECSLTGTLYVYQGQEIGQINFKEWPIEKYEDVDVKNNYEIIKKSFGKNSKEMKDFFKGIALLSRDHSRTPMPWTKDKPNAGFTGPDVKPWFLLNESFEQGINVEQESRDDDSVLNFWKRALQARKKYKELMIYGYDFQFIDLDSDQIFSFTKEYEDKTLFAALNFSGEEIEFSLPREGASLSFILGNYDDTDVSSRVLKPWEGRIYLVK
Experimental: After incubation for 15 min at 37°C, 20 μL of PNPG solution was added to each well of testing groups and further incubated at 37°C for 30 min. Finally, 80 μL of Na2CO3 solution was added to each well to stop the reaction and the absorbance was measured by a microplate reader (Multiskan Spectrum, Thermo Scientific Varioskan LUX) at λ 405 nm.

[2] = Oxygen radical absorbance capacity (ORAC) assay; conditions: trolox equivalents; tested at 6.25 μM (compounds 4–7), 12.5 μM (1–3, 8–16), 25.0 μM (17–25); PBS pH 7.4, 37°C
Experimental: The anti-oxidative activity of compounds was evaluated by ORAC assay ([Huang et al., 2002]) that was carried out mainly by using 2,2′-azobis(2-amidinopropane) dihydrochloride (AAPH, 153.0 μM), fluorescein (FL, 81.6 nM), testing compounds, and trolox as a positive control, all of which were dissolved in phosphate buffer solution (PBS, 75 mM, pH 7.4). The concentrations were 6.25 μM for compounds 4–7 and trolox, 12.5 μM for compounds 1–3, 8–16 and trolox, and 25.0 μM for compounds 17–25 and trolox, respectively (Supplementary Figure 36). In short, each 25 μL of testing compounds, blank (PBS), negative (PBS) and trolox, and 150 μL of FL were added in each well and incubated at 37°C for 10 min. Each 25 μL of AAPH was then added to the testing compounds, blank and trolox groups, and 25 μL of PBS was added to the negative group. Fluorescence intensity of each well was measured one time every 1 min for 90 cycles using a Fluoroskan Ascent FL plate-reader (Thermo Scientific Varioskan LUX) at excitation of λ 485 nm and emission of λ 530 nm. The relative fluorescence intensity f was equaled to the ratio of the absolute fluorescence reading to the initial fluorescence reading, and the net area under curve (AUC) was obtained by subtracting the AUC of the blank from that of the compound. The AUC was calculated as 0.5 + f1 +… fi +… + f89 + 0.5 × f90, in which fi means the ratio of fluorescence reading at time i to the initial fluorescence reading. The final ORAC values were calculated as micromole of trolox equivalents per micromole of the compound (μmole TE/μmole) by using a regression equation between the trolox concentration and the net area under the FL decay curve. That is, the relative ORAC value = (AUCcompound – AUCblank)/(AUCtrolox – AUCblank).

[3] = DPPH radical-scavenging assay; conditions: DPPH 0.15 mM in MeOH, 30-min incubation in the dark at rt, absorbance 517 nm
Experimental: The anti-oxidative activity of compounds was also evaluated by 2,2-diphenyl-1-picrylhydrazyl (DPPH) radical-scavenging assay ([Wang et al., 2007]). The experiment was divided into the following five groups, blank (methanol, MeOH), sample (mix compound and DPPH solution), background (pure compound solution), negative (pure DPPH solution), and positive [mix vitamin C (VC) and DPPH solution] controls. DPPH (0.15 mM), compounds (1–100 μM), and VC (1–100 μM) that was regarded as a compound sample in the following procedures all were dissolved in MeOH. Each 160 μL of MeOH was placed in negative control and blank groups, while each 160 μL of testing compounds or VC was placed in sample and background groups. Then, MeOH (each 40 μL) was, respectively, added to blank and background groups, while 40 μL of DPPH was, respectively, added to negative, positive, and sample controls. After 30-min incubation in the dark at rt, the decrease in DPPH radical concentration was monitored by measuring the absorbance at λ 517 nm with a microplate reader (Multiskan Spectrum, Thermo Scientific Varioskan LUX). The DPPH radical-scavenging rate was calculated as:
Scavenging rate (%)=[(Anegative-Ablank)-(Asample-Abackground)]/(Anegative-Ablank)×100%.

[4] = Cytotoxic effects on caco-2 cells by CTG assay; format: cell-based; conditions: human, 72 h incubation, read-out: inhibitory rate (cytotoxicity to caco-2 cells)
Experimental: The cytotoxic effects on the coca-2 cells were evaluated by the CTG assay ([Elisia and Kitts, 2008]; [Wang et al., 2019]). Briefly, coca-2 cells were seeded in 96-well plates at a density of 2 × 10^3 cells/well and treated with the final concentration of 1.0 μM of the compounds. After 72 h incubation, 100 μL of CTG solution (Promega) was added into each well. The luminescence value was tested by using a microplate reader (BioTek Synergy H1) after staying at rt for 10 min.

Row | SMILES | IC50 [1] [µM] | IC50 [3] [µM] | ORAC (μMole TE/μMole) [2] | inhibition at 72 h, 1 µM [4] [%]
1 | COc1cc(-c2c(OC)cc(-c3ccccc3)c(OC)c2O)ccc1OCC=C(C)C [Compound 1, 3-O-methyl-4″-deoxyterprenin] | > 500 | > 100 | 1.0 ± 0.04 μMole TE/μMole | –
2 | COc1cc(-c2ccccc2)c(OC)c(OC)c1-c1ccc(O)cc1 [Compound 3, 4″-deoxy-2′-methoxyterphenyllin] | > 500 | > 100 | 2.1 ± 0.5 μMole TE/μMole | –
3 | COc1cc(-c2ccc(O)cc2)c(O)c(O)c1-c1ccc(O)cc1 [Compound 4, 5′-methoxy-[1,1′:4′,1″-terphenyl]-2′,3′,4,4″-tetraol] | 5.9 ± 0.6 | 1.7 ± 0.02 | 6.8 μMole TE/μMole and 6.8 ± 0.05 μMole TE/μMole | –
4 | COc1cc(-c2ccc(O)cc2)c(OC)c(O)c1-c1ccc(O)c(O)c1 [Compound 6, 3-hydroxyterphyllin] | 10.9 ± 1.3 | 1.4 ± 0.01 | 5.7 μMole TE/μMole and 5.7 ± 0.3 μMole TE/μMole | 0.2
5 | COc1cc(-c2ccc(O)c(O)c2)c(OC)c(O)c1-c1ccc(O)c(O)c1 [Compound 7, 3,3″-dihydroxyterphyllin] | 18.3 ± 0.9 | 1.1 ± 0.03 | 4.5 μMole TE/μMole and 4.5 ± 0.4 μMole TE/μMole | 0.5
6 | COc1cc(-c2ccccc2)c(OC)c(O)c1-c1ccc(O)cc1 [Compound 8, 4″-deoxyterphenyllin] | 130 ± 3.5 | 57.8 ± 0.8 | 0.5 ± 0.01 μMole TE/μMole | –
7 | COc1cc(-c2ccccc2)c(OC)c(O)c1-c1ccc(O)c(O)c1 [Compound 9, 4″-deoxy-3-hydroxyterphenyllin] | 464 ± 23.6 | 1.9 ± 0.04 | 0.5 ± 0.06 μMole TE/μMole | –
8 | COc1cc(-c2ccc(O)cc2)c(OC)c(OC)c1-c1ccc(O)cc1 [Compound 10, 3′-O-methylterphenyllin] | > 500 | > 100 | 0.5 ± 0.03 μMole TE/μMole | –
9 | COc1cc(-c2ccc(O)c(CC=C(C)C)c2)c(OC)c(O)c1-c1ccc(O)c(O)c1 [Compound 12, prenylterphenyllin A] | 64.4 ± 1.2 | 1.6 ± 0.02 | 1.4 ± 0.01 μMole TE/μMole | –
10 | COc1cc(-c2c(OC)cc(-c3ccc(O)cc3)c(OC)c2O)ccc1OCC=C(C)C [Compound 13, 3-methoxyterprenin] | 152 ± 9.6 | > 100 | 0.4 ± 0.07 μMole TE/μMole | –
11 | COc1c(-c2ccc(O)cc2)cc(OC)c2c1oc1cc(O)c(O)cc12 [Compound 15, candidusin A] | 13.1 ± 0.2 | 3.6 ± 0.06 | 2.1 ± 0.06 μMole TE/μMole | 20.5
12 | Oc1ccc(-c2cc(O)c(-c3ccc(O)c(O)c3)c(O)c2O)cc1 [Compound 18] | 25 ± 0.8 | 3.7 ± 0.07 | 3.7 ± 0.1 μMole TE/μMole | –
13 | Oc1ccc(-c2cc(O)c(-c3ccc(O)c(O)c3)c(O)c2O)cc1O [Compound 19] | 19.4 ± 0.1 | 1.8 ± 0.04 | 2.6 ± 0.1 μMole TE/μMole | –
14 | O=C1C=C(c2ccc(O)cc2)C(=O)C(O)=C1c1ccc(O)cc1 [Compound 20] | 8.9 ± 0.4 | 5.9 ± 0.08 | 6.1 μMole TE/μMole and 6.1 ± 0.2 μMole TE/μMole | 0.4
15 | O=C1C=C(c2ccc(O)c(O)c2)C(=O)C(O)=C1c1ccc(O)c(O)c1 [Compound 22] | 10.1 ± 0.1 | 1.7 ± 0.02 | 2.8 ± 0.3 μMole TE/μMole | –
16 | COc1cc(-c2ccc(OC(C)=O)cc2)c(OC)c(OC(C)=O)c1-c1ccc(OC(C)=O)c(OC(C)=O)c1 [Compound 24] | > 500 | 37.8 ± 0.1 | 0.8 ± 0.07 μMole TE/μMole | –
17 | COc1cc(-c2ccc(OC(C)=O)c(OC(C)=O)c2)c(OC)c(OC(C)=O)c1-c1ccc(OC(C)=O)c(OC(C)=O)c1 [Compound 25] | > 500 | 11 ± 0.1 | 1.7 ± 0.07 μMole TE/μMole | –
18 | O=C1O[C@H]([C@@H](O)CO)C(O)=C1O [VC, vitamin C, reference compound] | – | 2.8 ± 0.03 | – | –

Continued, in another order:

Row | IC50 [1] [µM] | IC50 [3] [µM] | SMILES | ORAC (μMole TE/μMole) [2] | inhibition at 72 h, 1 µM [4] [%]
19 | 239 ± 5.9 | > 100 | COc1cc(-c2ccc(O)cc2)c(OC)c(O)c1-c1ccccc1 [Compound 2, 4-deoxyterphenyllin] | 1.2 ± 0.09 μMole TE/μMole | –
20 | 2.8 ± 0.2 | 10.9 ± 0.3 | COc1cc(-c2ccc(O)cc2)c(OC)c(O)c1-c1ccc(O)cc1 [Compound 5, terphenyllin] | 6.0 μMole TE/μMole and 6.0 ± 0.09 μMole TE/μMole | 0.4
21 | 34.4 ± 1.1 | 1.6 ± 0.01 | COc1cc(-c2ccccc2)c(OC)c(O)c1-c1ccc(O)c(CC=C(C)C)c1 [Compound 11, 4″-deoxyprenylterphenyllin] | 1.2 ± 0.5 μMole TE/μMole | –
22 | 128 ± 2.3 | 4 ± 0.2 | COc1c(-c2ccccc2)cc(OC)c2c1oc1cc(O)c(O)cc12 [Compound 14, 4″-deoxycandidusin A] | 0.4 ± 0.06 μMole TE/μMole | –
23 | 7.9 ± 0.3 | 3.2 ± 0.1 | COc1c(-c2ccc(O)c(O)c2)cc(OC)c2c1oc1cc(O)c(O)cc12 [Compound 16, candidusin B] | 2.0 ± 0.06 μMole TE/μMole | 2.7
24 | 25.1 ± 0.7 | 5.3 ± 0.06 | Oc1ccc(-c2cc(O)c(-c3ccc(O)cc3)c(O)c2O)cc1 [Compound 17] | 4.8 μMole TE/μMole and 4.8 ± 0.3 μMole TE/μMole | –
25 | 4 ± 0.08 | 1.6 ± 0.04 | O=C1C=C(c2ccc(O)cc2)C(=O)C(O)=C1c1ccc(O)c(O)c1 [Compound 21] | 3.9 ± 0.1 μMole TE/μMole | 1.2
26 | > 500 | > 100 | COc1cc(-c2ccc(OC(C)=O)cc2)c(OC)c(OC(C)=O)c1-c1ccc(OC(C)=O)cc1 [Compound 23] | 0.1 ± 0.01 μMole TE/μMole | –
